Reference: article PMC10699586 (Journal of molecular biology, 2023)
Structures can show the parent of a compound that is named as a salt.

Target: T1, dysferlin C2A domain (dysf C2A) (Homo sapiens, UniProt O75923)
T1 sequence (O75923 1-129): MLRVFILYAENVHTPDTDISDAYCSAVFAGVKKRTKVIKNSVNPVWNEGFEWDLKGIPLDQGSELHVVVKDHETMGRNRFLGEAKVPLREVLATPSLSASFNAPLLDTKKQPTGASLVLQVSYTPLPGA
Test: […]-TROSY NMR titration, single-site fast-exchange fit
Assay type: binding

Kd: 12 to 15 µM
SMILES: O=P(O)(O)O[C@@H]1[C@H](O)[C@H](O)[C@@H](OP(=O)(O)O)[C@H](OP(=O)(O)O)[C@H]1O [IP3, D-myo-Inositol 1,4,5-tris-phosphate trisodium salt]
